Data reported in patent US20080214656A1, “Compounds With Diphenoyl-Structure For the Treatment of Immune Diseases” (Neurogenex Co., Ltd., priority 2004, published 2008).

Columns and labels:
[1] = tested on: allogenic human leukocytes; experiment: Mixed leukocyte reaction (MLR), 3H-TdR incorporation; assay type: cell-based; conditions: for cpm (3H-TdR incorporation, lymphocyte proliferation) as % of the control group: approximately 50 μM, 5 days incubation
Protocol: Leukocytes were separated from peripheral blood of two allogenic volunteers, and then suspended with a concentration of approximately 2×10^6 ml^−1 in IMDM supplemented with 10% fetal bovine serum (Gibco, USA). 100 μl of each cell suspension was added and mixed in the each well of 96-well cell culture plate. Afterwards, saline solution was added to a control group, while chebulagic acid or punicalagin, which was diluted with saline solution by 2-fold, was added to treatment groups. Then, the plates were incubated with 5% CO2 at 37° C. for 5 days. 20 μl (approximately 0.5 μCi) of tritiated thymidine (^3H-TdR) was added to each well and incubated for 8 hours.
After the incubation, the leukocytes at each well were adsorbed on a glass fiber filter by a cell harvester (Cambridge, USA) and dried thereafter. Using Scintillation beta counter (Packard, USA), an amount of ^3H-TdR incorporated within the cells was measured in a cpm value. This measurement indicates the level of lymphocyte proliferation, which-is illustrated in FIG. 2.
In FIG. 2, CsA represents a group with 1 μM of cyclosporin A used as a positive standard specimen. The concentration of each chebulagic acid and punicalagin was approximately 50 μM. Each of the experimental data was expressed as average±standard error with a p* value of less than 0.05.

[2] = tested on: collagen-induced arthritis; experiment: Collagen-induced arthritis (CIA), prophylactic dosing model; assay type: in vivo; conditions: 10 mg/kg and 20 mg/kg i.p. daily for 3 weeks (day 22 to day 42); DBA/1J mice
Protocol: (§1) As introduced in an article by Luross and Williams (Immunology, 103(4), pp. 407-416, 2001), a mice model with collagen-induced arthritis (CIA) was used to check whether compounds with a DP or HHDP structure had immune regulatory effects on the chronic inflammation or autoimmune diseases. Male DBA/1J mice, which were 7 to 9 weeks old (SLC Co., Japan), received a subcutaneous injection at the base of tails with approximately 200 μg of bovine type II collagen (CII) in complete Freund's adjuvant (CFA) on days 0 and 21 to induce systemic autoimmune arthritis. […]
For the prophylactic dosing model, the control group and the treatment groups respectively received an intraperitoneal injection of saline solution and 10 mg/kg and 20 mg/kg of chebulagic acid daily for 3 weeks (from day 22 to day 42). A degree of arthritis of the mice was measured for every interval of 3 to 4 days from day 22 to day 63. […] Each of the experimental data was expressed as average±standard error with a P* value of less than 0.05.
(§2) The daily observed arthritis degree of mice was scored for each paw as follows: 0=normal, 1=slight erythema and edema, 2=increased edema with loss of landmarks, 3=severe edema, and 4=severe edema with ankylosis on flexion. […] Each group was then assigned an arthritic score expressed as a mean articular index.

skin allograft = experiment: Skin allograft between allogenic mice; assay type: in vivo; conditions: 20 mg/kg i.p. daily; Balb/c skin grafted to C57B1/6 mouse
Protocol: To verify that compounds with a DP or HHDP structure are capable of suppressing a transplantation rejection response or a graft-versus-host disease directly in vivo, a skin graft was performed between allogenic mice and then chebulagic acid was treated to estimate the level of suppression against the tissue transplantation (Schwoebel et al., Lab Anim., 39(2), pp. 209-214, 2005).
Skin tissues including the derma (e.g., approximately 1 cm×approximately 1 cm) from the back of a Balb/c mouse (Samtaco, Korea) and a C57B1/6 mouse (Samtaco, Korea) were isolated while being anesthetized. The skin tissue of the Balb/c mouse was grafted to the back of the C57B1/6 mouse. After the next day of the skin graft, the treatment group and the control group received the daily intraperitoneal injection of 20 mg/kg of chebulagic acid and saline solution, respectively. It was checked whether the grafted skin tissues in the control group and the treatment group were normal or necrotized.

[3] = tested on: CD4+CD25+ regulatory T cells; experiment: Regulatory T cells in inflamed synovial tissues of CIA mice (FACS, Foxp3 RT-PCR); assay type: in vivo; conditions: 20 mg/kg
Description: A correlation between immune regulation by chebulagic acid and regulatory T cells was studied through estimation of an increase/decrease in the number of regulatory T cells in inflamed synovial tissues of the mice with collagen-induced arthritis set in specific groups in Example 3. The knee joints of the limbs with edema were isolated and the surrounding muscle, patellar ligament and patella were removed to obtain the synovial tissues. Each of the synovial tissues was cut into small pieces and incubated twice in a buffer solution at 37° C. for 30 minutes. The buffer solution includes approximately 1 μg/ml collagenase type VI (Sigma, USA), 2% fetal bovine serum (Gibco, USA) and 1 mM EDTA (Sigma, USA). The cells of the isolated synovial tissues were collected and stained with anti-CD4-FITC antibodies (BD Bioscience, USA) and anti-CD25-PE antibodies (BD Bioscience, USA) for fluorescence-activated cell sorter (FACS) analysis (BD Bioscience, USA).

ovalbumin-induced asthma = experiment: Ovalbumin-induced asthma (OIA), blood IgE level; assay type: in vivo; conditions: 20 mg/kg i.p. daily for two weeks; Balb/c mice
Protocol: The immune regulation effects by compounds with a DP structure, preferably a HHDP structure, were estimated through a mice model with ovalbumin-induced asthma (OIA).
Balb/c mice (Samtaco, Korea) received an intraperitoneal injection of ovalbumin on days 0 and 14, and a solution of 1% ovalbumin was sprayed daily for 20 minutes on days 30, 32 and 34. 20 mg/kg of chebulagic acid was daily injected intraperitoneally for two weeks and bloods were taken to estimate the IgE level to check whether chebulagic acid had efficacy for the mice with the hypersensitive inflammatory disease.

Foxp3 = Foxp3 expression in stimulated CD4+ T cells by real-time RT-PCR; assay type: cell-based, mice; conditions: approximately 50 μM; mouse spleen CD4+ T cells stimulated by anti-CD3 and anti-CD28
Protocol: CD4^+ T cells were obtained from the spleens of mice, and each group of the CD4^+ Tcells with a concentration of approximately 1×10^6 ml^−1 was suspended in Iscove's modified Dulbecco's medium (IMDM) supplemented with 10% fetal bovine serum (Gibco, USA). The CD4^+ T cells were stimulated by antibodies of anti-CD3 (BD Bioscience, USA) and anti-CD28 (BD Bioscience, USA) and cultured at a cell incubator maintained with 5% CO2 at 37° C. The entire RNA was extracted using RNA-Bee solution (Tel-test, USA) and then reverse transcribed into cDNA through the known method as described by McIntyre et al. (Arthritis Rheum., 48(9), pp. 2652-2659, 2003). Afterwards, the level of mRNA expression was estimated by a real-time quantitative PCR with SYBR Green I (Roche, USA). Each reaction was run in triplicate using SYBR Green PCR Master Mix (Roche, USA) according to the manufacturer's protocol. […] At this time, the PCR was performed sequentially at 94° C. for 30 seconds, at 58° C. for 30 seconds, and at 72° C. for 30 seconds. This cycle of PCR was repeated 40 times.

[4] = tested on: collagen-induced arthritis; experiment: Collagen-induced arthritis (CIA), therapeutic dosing model; assay type: in vivo, mice; conditions: 20 mg/kg i.p. daily for 3 weeks after arthritis induced (after day 63); within 1 week of therapeutic administration
Protocol: as §1
For the therapeutic doing model, another experiment was performed separately from the above experiment for the prophylactic dosing model. […] During 3 weeks of the treatment period, a degree of arthritis of the mice was measured for every interval of 3 to 4 days. […] Each of the experimental data was expressed as average±standard error with a P* value of less than 0.05.
as §2

[5] = synovial tissues of mice with arthritis

| Compound | suppression of lymphocyte proliferation compared with cyclosporin ([1]; approximately 50 μM vs 1 μM cyclosporin A) | cpm (3H-TdR incorporation, lymphocyte proliferation) as % of the control group [1] | onset of collagen-induced arthritis and articular index [2] | success ratio and period of maintaining the tissue graft (skin allograft) | increase of the CD4+CD25+ T cells compared with the control group ([3]; CIA mice) | increase of the Foxp3 expression compared with the control group ([3]; CIA mice) | CD4+CD25+ T cell ratio (%) [3, 5] [%] | Foxp3 expression level [3, 5] | IgE level in blood as compared with the control group OVA-Control (ovalbumin-induced asthma) | increased amount of Foxp3 expression compared with the control group (Foxp3) | arthritis progression [4] |
| --- | --- | --- | --- | --- | --- | --- | --- | --- | --- | --- | --- |
| O=C(O)C[C@@H]1C(=O)O[C@H]2[C@@H]3OC(=O)c4cc(O)c(O)c(O)c4-c4c(cc(O)c(O)c4O)C(=O)OC[C@H]2O[C@@H](OC(=O)c2cc(O)c(O)c(O)c2)[C@@H]3OC(=O)c2cc(O)c(O)c3c2[C@H]1[C@H](O)C(=O)O3 [chebulagic acid] | as effective as 1 μM cyclosporin | approximately 9.7% | decreased the onset of collagen-induced arthritis and the articular index | increased the success ratio and period of maintaining the tissue graft | approximately 100% | approximately 550% | 5.0 ± 0.4 | 3.3 ± 0.3 | approximately 28.5% | approximately 375% | significant inhibition of the arthritis progression |
| O=C(O[C@@H]1O[C@@H]2COC(=O)c3cc(O)c(O)c(O)c3-c3c(cc(O)c(O)c3O)C(=O)O[C@H]([C@H]1O)[C@@H]2O)c1cc(O)c(O)c(O)c1 [corilagin] |  |  |  |  |  |  |  |  |  | approximately 350% |  |
| O=C1OC2C(O)OC3COC(=O)c4cc(O)c(O)c(O)c4-c4c(O)c(O)c5oc(=O)c6c(c(O)c(O)c7oc(=O)c4c5c76)-c4c(cc(O)c(O)c4O)C(=O)OC3C2OC(=O)c2cc(O)c(O)c(O)c2-c2c1cc(O)c(O)c2O (centres unmarked) [punicalagin] |  | approximately 34.1% |  |  |  |  |  |  |  | approximately 737% |  |
